Data published in patent publication US20240294551A1 (AMGEN INC., priority 2022, published 2024).
Read-outs that look alike come from different tables or passages of the source.

How the values were obtained:
[1] = biological target: GDP-bound KRAS protein (aa 1-169), containing both G12D and C118A amino acid substitutions (Homo sapiens (Human), UniProt P01116, C118A/G12D); assay: KRAS G12D Coupled Nucleotide Exchange Assay; type: biochemical; settings: read-out: KRAS G12D Coupled Exchange IC50
[2] = system: p-ERK in PANC 04.03 tumor-bearing mice; assay: Tumor Pharmacodynamic Assay (p-ERK inhibition in PANC 04.03 tumors); type: in vivo; settings: Mus musculus; PANC 04.03 tumor-bearing female athymic nude mice; single oral dose 100 mg/kg; tumors harvested 2 hr later; relative to vehicle group
Method: Tumor Pharmacodynamic Assays
Inhibitor pharmacodynamic effects were assessed in PANC 04.03 tumor-bearing mice. PANC 04.03 tumor cells (5.0E+06 cells) were injected subcutaneously into the flank of female athymic nude mice in a mixture with Matrigel (BD Bioscience). Mice received a single oral dose of either vehicle or inhibitor (100 mg/kg) when the average tumor size reached -300-600 mm^3 (n=3/group) and harvested 2 hours later. Tumor samples were collected, snap frozen, and processed for analysis by pulverizing with a cryoPREP® Dry Impactor (Covaris). Pulverized samples were resuspended in RIPA lysis buffer containing protease and phosphatase inhibitors and homogenized. Cleared lysates were analyzed using phospho-ERK1/2 and total ERK1/2 whole cell lysate kits (Meso Scale Discovery) according to the manufacturer's protocol. Phospho-ERK1/2 signal was normalized to total ERK1/2 signal for a given sample, and percent inhibition of p-ERK was calculated relative to the vehicle group.

[3] = biological target: His-tagged KRAS G12D protein (Homo sapiens (Human), UniProt P01116, G12D); assay: KRAS G12D TR-FRET Assay; type: binding; settings: read-out: KRAS G12D Binding IC50
How it was run: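 Each incubation ran at room temperature: enzyme with compound for 30 minutes, peptide for one hour, and detection reagents (0.4 nM europium anti-6×His, 5 nM streptavidin-d2) for one hour more. Protein and peptide stocks were each diluted to 20 nM before addition.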

[4] = system: Phosphorylation of ERK1/2 in AsPC-1 cells; assay: Phospho-ERK1/2 MSD Assay; type: cell-based, human; settings: read-out: 2 h p-ERK (AsPC-1 cells), IC50
How it was run: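 Read-out: MSD electrochemiluminescent detection of phosphorylated ERK1/2 in whole-cell lysates, fitted to a 4-parameter logistic curve for IC50. Prior to lysis, AsPC-1 cells (25,000 per well) received a 2 h compound dose-response at 37 °C.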

[5] = system: MIA PaCa-2 cells; assay: MIA PaCa-2 CTG Assay (CellTiter-Glo cell viability); type: cell-based, human; settings: Mia PaCa-2, 72 h, second value of the cell, read-out: G12D/C/V Cell Proliferation CTG (72 h) Mia PaCa-2
How it was run: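 IC50 values come from a 4-parameter logistic fit of CellTiter-Glo luminescence, normalized to DMSO control, after 72 h compound exposure at 37° C, 5% CO2. Cells grew in RPMI 1640 plus 10% FBS and were seeded at 1.67E+04 cells/mL one night before dosing.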

[6] = system: SW620 cells; assay: SW620 CTG Assay (CellTiter-Glo cell viability); type: cell-based, human; settings: SW620, 72 h, third value of the cell, read-out: G12D/C/V Cell Proliferation CTG (72 h) SW620
How it was run: (§1)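 IC50 values derive from 4-parameter logistic fits of CellTiter-Glo luminescence, expressed relative to DMSO. Compound dilution series were applied to overnight-seeded AsPC-1 or SW620 cells (RPMI 1640, 10% FBS) for 72 h at 37 °C, 5% CO2.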

[7] = system: AsPC-1 cells; assay: AsPC-1 CTG Assay (CellTiter-Glo cell viability); type: cell-based, human; settings: AsPC-1, 72 h, first value of the cell, read-out: G12D/C/V Cell Proliferation CTG (72 h) AsPC-1
How it was run: as §1

His-tagged KRAS G12D protein, sequence (P01116 other isoform, or with tags, fused parts or gaps G12D): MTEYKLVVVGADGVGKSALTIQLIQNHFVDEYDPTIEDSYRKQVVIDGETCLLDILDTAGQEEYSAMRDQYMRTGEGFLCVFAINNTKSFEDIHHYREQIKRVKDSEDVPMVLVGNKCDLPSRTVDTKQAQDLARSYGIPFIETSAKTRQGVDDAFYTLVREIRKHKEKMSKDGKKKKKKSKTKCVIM
GDP-bound KRAS protein (aa 1-169), containing both G12D and C118A amino acid substitutions, sequence (P01116 other isoform, or with tags, fused parts or gaps G12D/C118A): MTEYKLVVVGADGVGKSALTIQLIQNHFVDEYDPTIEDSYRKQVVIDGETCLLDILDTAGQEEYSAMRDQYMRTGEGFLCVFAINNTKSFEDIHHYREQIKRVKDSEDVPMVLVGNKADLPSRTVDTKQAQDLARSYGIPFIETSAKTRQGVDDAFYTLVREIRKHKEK

Compound | IC50 [1] [nM] | IC50 [3] [nM] | IC50 ([4]; Homo sapiens, ASPC1, 2 h) [nM] | IC50 ([5]; Homo sapiens) [nM] | IC50 ([6]; Homo sapiens, SW-620) [nM] | IC50 ([7]; Homo sapiens, ASPC1, 72 h) [nM] | IC50 [5] [nM] | IC50 [6] [nM] | IC50 [7] [nM] | IC50 ([4]; 2 h) [nM] | inhibition in vivo at 100 mg/kg [2] [%]
C[C@@]12CCCN(C1)c1nc(OC[C@@]34CCCN3C[C@H](F)C4)nc3c(F)c(ncc13)-c1cccc3ccc(F)c(c13)CCCC(=O)N2 [Example 7, (15R)-22,31-Difluoro-8-(((2R,7aS)-2-fluorotetrahydro-1H-pyrrolo[1,2-a]pyrrol-7a(5H)-yl)methoxy)-15-methyl-3,7,9,11,16-pentaazahexacyclo[19.7.1.1˜2,6˜.1˜11,15˜.0˜5,10˜.0˜25,29˜]hentriaconta-1(28),2(31),3,5,7,9,21,23,25(29),26-decaen-17-one bis(2,2,2-trifluoroacetate)] | 15 | 15 | 260 | – | – | – | – | – | – | – | 21
Fc1c2ncc3c(nc(OC[C@@]45CCCN4C[C@H](F)C5)nc13)N1CCC[C@@](F)(COCCCCc3c(Cl)cc4[nH]ncc4c3-2)C1 [Example 151, (17S)-9-chloro-17,30-difluoro-24-(((2R,7aS)-2-fluorotetrahydro-1H-pyrrolo[1,2-a]pyrrol-7a(5H)-yl)methoxy)-15-oxa-5,6,21,23,25,29-hexaazahexacyclo[24.3.1.1~17,21~.0~2,10~.0~3,7~.0~22,27~]hentriaconta-1(30),2,4,7,9,22,24,26,28-nonaene] | 2 | 4 | 13 | 70 | 38.7 | 200 | – | – | – | – | –
O=C1OCCCc2c(Cl)cc3[nH]ncc3c2-c2ncc3c(nc(OC[C@@]45CCCN4C[C@H](F)C5)nc3c2F)N2CC[C@H]3CCN1[C@H]3C2 [Example 177, (28S,32R)-18-chloro-33-fluoro-4-(((2R,7aS)-2-fluorotetrahydro-1H-pyrrolo[1,2-a]pyrrol-7a(5H)-yl)methoxy)-23-oxa-1,3,5,9,14,15,25-heptaazaheptacyclo[23.5.2.1~6,10~.0~2,7~.0~11,19~.0~12,16~.0~28,32~]tritriaconta-2,4,6,8,10(33),11,13,16,18-nonaen-24-one] | 3 | 3 | 16.3 | 100 | 39 | 178 | – | – | – | – | –
Fc1cc2[nH]ncc2c2c1CCCCOC[C@H]1CCCCN(C1)c1nc(OC[C@@]34CCCN3C[C@H](F)C4)nc3c(F)c-2ncc13 [Example 240, (26S)-18,32-difluoro-4-(((2R,7aS)-2-fluorotetrahydro-1H-pyrrolo[1,2-a]pyrrol-7a(5H)-yl)methoxy)-24-oxa-1,3,5,9,14,15-hexaazahexacyclo[24.4.1.1~6, 10~.0~2,7~.0~11,19~.0~12,16~]dotriaconta-2,4,6(32),7,9,11,13,16,18-nonaene] | 2 | 3 | 21.9 | 140 | 80 | 230 | – | – | – | – | –
Fc1c2ncc3c(nc(OC[C@@]45CCCN4C[C@H](F)C5)nc13)N1CCC[C@]3(C1)C[C@H](C3)OCCCCc1c(Cl)cc3[nH]ncc3c1-2 [Example 260, (1S,3R)-10-Chloro-32-fluoro-24-(((2R,7aS)-2-fluorotetrahydro-1H-pyrrolo[1,2-a]pyrrol-7a(5H)-yl)methoxy)-4-oxa-13,14,19,23,25,27-hexaazaheptacyclo[25.3.1.1˜1,3˜.1˜18,22˜.0˜9,17˜.0˜12,16˜.0˜21,26˜]tritriaconta-9,11,14,16,18(32),19,21,23,25-nonaene bis(2,2,2-trifluoroacetate)] | 2 | 4 | – | – | – | – | 26 | 8 | 40 | 3.2 | –
O=C1OCCCc2c(Cl)cc3[nH]ncc3c2-c2ncc3c(nc(OC[C@@]45CCCN4C[C@H](F)C5)nc3c2F)N2CCOC[C@](CF)(C2)O1 [Example 311, (26S)-18-chloro-32-fluoro-26-(fluoromethyl)-4-(((2R,7aS)-2-fluorotetrahydro-1H-pyrrolo[1,2-a]pyrrol-7a(5H)-yl)methoxy)-23,25,28-trioxa-1,3,5,9,14,15-hexaazahexacyclo[24.4.1.1~6,10~.0~2,7~.0~11,19~.0~12,16~]dotriaconta-2,4,6(32),7,9,11,13,16,18-nonaen-24-one] | 3 | 5 | 4.2 | 7 | 6 | 36 | – | – | – | – | –

Further lines, with some results ahead:

IC50 [1] [nM] | IC50 [3] [nM] | IC50 ([4]; Homo sapiens, ASPC1, 2 h) [nM] | IC50 ([5]; Homo sapiens) [nM] | IC50 ([6]; Homo sapiens, SW-620) [nM] | IC50 ([7]; Homo sapiens, ASPC1, 72 h) [nM] | IC50 [5] [nM] | IC50 [6] [nM] | IC50 [7] [nM] | IC50 ([4]; 2 h) [nM] | Compound | inhibition in vivo at 100 mg/kg [2] [%]
3 | 5 | 16.2 | 90 | – | 68 | – | – | – | – | C[C@@]12CCCCN(C1)c1nc(OC[C@@]34CCCN3C[C@H](F)C4)nc3c(F)c(ncc13)-c1c(c(Cl)cc3[nH]ncc13)CCCCC(=O)N2 [Example 166, (26R)-18-chloro-32-fluoro-4-(((2R,7aS)-2-fluorotetrahydro-1H-pyrrolo[1,2-a]pyrrol-7a(5H)-yl)methoxy)-26-methyl-1,3,5,9,14,15,25-heptaazahexacyclo [24.4.1.1~6,10~.0~2,7~.0~11,19~.0~12,16~]dotriaconta-2,4,6,8,10(32),11,13,16,18-nonaen-24-one] | 63
4 | 8 | 49.3 | 50 | 44 | 164 | – | – | – | – | Cc1cc2[nH]ncc2c2c1CCCOC(=O)O[C@]1(C)COCCN(C1)c1nc(OC[C@@H]3CCCN3C)nc3c(F)c-2ncc13 [Example 183, (26S)-32-fluoro-18,26-dimethyl-4-(((2S)-1-methyl-2-pyrrolidinyl)methoxy)-23,25,28-trioxa-1,3,5,9,14,15-hexaazahexacyclo[24.4.1.1~6,10~.0~2,7~.0~11,19~.0~12,16~]dotriaconta-2,4,6,8,10(32),11,13,16,18-nonaen-24-one] | –
1 | 2 | 8.1 | 16 | 14 | 108 | – | – | – | – | O=C1OCCCc2c(Cl)cc3[nH]ncc3c2-c2ncc3c(nc(OCC45CCCN4CCC5)nc3c2F)N2CCOC[C@H](C2)O1 [Example 198, (26S)-18-chloro-32-fluoro-4-(tetrahydro-1H-pyrrolo[1,2-a]pyrrol-7a(5H)-ylmethoxy)-23,25,28-trioxa-1,3,5,9,14,15-hexaazahexacyclo[24.4.1.1~6,10~.0~2,7~.0~11,19~.0~12,16~]dotriaconta-2,4,6,8,10(32),11,13,16,18-nonaen-24-one] | –
3 | 4 | 6.7 | 13 | 10 | 54 | – | – | – | – | O=C1OCCc2c(Cl)cc3[nH]ncc3c2-c2ncc3c(nc(OC[C@@]45CCCN4C[C@H](F)C5)nc3c2F)N2CCOC[C@]3(C2)C[C@H](C3)O1 [Example 316, (1R,3R)-10-chloro-33-fluoro-24-(((2R,7aS)-2-fluorotetrahydro-1H-pyrrolo[1,2-a]pyrrol-7a(5H)-yl)methoxy)-4,6,30-trioxa-13,14,19,23,25,27-hexaazaheptacyclo[25.4.1.1~1,3~.1~18,22~.0~9,17~.0~12,16~.0~21,26~]tetratriaconta-9,11,14,16,18(33),19,21,23,25-nonaen-5-one] | –
